Results published in PubChem BioAssay (NCI).
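Step 1: Grow cells in 96-well plates. Step 2: Expose to compound for 48 hours at 5 concentrations. Step 3: Interpolate endpoints linearly; if unreached, use highest concentration. At the TGI there is no net growth.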

What was measured:
Experiment in all cases: inhibition of tumour cell growth, NCI panel, 48 h
EKVX NSCLC = system: EKVX NSCLC
HL-60(TB) leukemia = system: HL-60(TB) leukemia
K-562 leukemia = system: K-562 leukemia
LOX IMVI melanoma = system: LOX IMVI melanoma
NCI-H226 lung = system: NCI-H226 lung
SK-MEL-28 melanoma = system: SK-MEL-28 melanoma
SK-MEL-5 melanoma = system: SK-MEL-5 melanoma
SNB-19 CNS = system: SNB-19 CNS
UACC-257 melanoma = system: UACC-257 melanoma
UACC-62 melanoma = system: UACC-62 melanoma

Measured: TGI

CCCCN[C@H]1C2C3CC4C5CC(C42)C1(C)C53 (stereo not given in full)
> 100 µM: all assays above
